Patent US20250170248A1, “SMARCA DEGRADERS AND USES THEREOF” (Kymera Therapeutics, Inc., priority 2021, published 2025)

Experiments:
Assay type in all cases: cell-based
[1] = biological target: T1, SMARCA4 (Homo sapiens, UniProt P51532); assay: SMARCA4 Western blot degradation in MV4-11 cells; conditions: for Dmax: MV4-11, MV4-11 cells, read-out: SMARCA4 MSD MV411 degradation 24 h: average Dmax %; for Dmax / DC50: 24 h; for DC50 / SMARCA4 MSD MV411 degradation 24 h: average Dmax %: MV4-11 cells; for DC50: read-out: SMARCA4 MSD MV411 degradation 24 h: Mean external-Abs DC50
T1 construct: SMARCA2/SMARCA4 protein degradation selectivity in MV4-11 cells; endogenous in cells; host or cells: MV4-11
T1 sequence (P51532 whole entry): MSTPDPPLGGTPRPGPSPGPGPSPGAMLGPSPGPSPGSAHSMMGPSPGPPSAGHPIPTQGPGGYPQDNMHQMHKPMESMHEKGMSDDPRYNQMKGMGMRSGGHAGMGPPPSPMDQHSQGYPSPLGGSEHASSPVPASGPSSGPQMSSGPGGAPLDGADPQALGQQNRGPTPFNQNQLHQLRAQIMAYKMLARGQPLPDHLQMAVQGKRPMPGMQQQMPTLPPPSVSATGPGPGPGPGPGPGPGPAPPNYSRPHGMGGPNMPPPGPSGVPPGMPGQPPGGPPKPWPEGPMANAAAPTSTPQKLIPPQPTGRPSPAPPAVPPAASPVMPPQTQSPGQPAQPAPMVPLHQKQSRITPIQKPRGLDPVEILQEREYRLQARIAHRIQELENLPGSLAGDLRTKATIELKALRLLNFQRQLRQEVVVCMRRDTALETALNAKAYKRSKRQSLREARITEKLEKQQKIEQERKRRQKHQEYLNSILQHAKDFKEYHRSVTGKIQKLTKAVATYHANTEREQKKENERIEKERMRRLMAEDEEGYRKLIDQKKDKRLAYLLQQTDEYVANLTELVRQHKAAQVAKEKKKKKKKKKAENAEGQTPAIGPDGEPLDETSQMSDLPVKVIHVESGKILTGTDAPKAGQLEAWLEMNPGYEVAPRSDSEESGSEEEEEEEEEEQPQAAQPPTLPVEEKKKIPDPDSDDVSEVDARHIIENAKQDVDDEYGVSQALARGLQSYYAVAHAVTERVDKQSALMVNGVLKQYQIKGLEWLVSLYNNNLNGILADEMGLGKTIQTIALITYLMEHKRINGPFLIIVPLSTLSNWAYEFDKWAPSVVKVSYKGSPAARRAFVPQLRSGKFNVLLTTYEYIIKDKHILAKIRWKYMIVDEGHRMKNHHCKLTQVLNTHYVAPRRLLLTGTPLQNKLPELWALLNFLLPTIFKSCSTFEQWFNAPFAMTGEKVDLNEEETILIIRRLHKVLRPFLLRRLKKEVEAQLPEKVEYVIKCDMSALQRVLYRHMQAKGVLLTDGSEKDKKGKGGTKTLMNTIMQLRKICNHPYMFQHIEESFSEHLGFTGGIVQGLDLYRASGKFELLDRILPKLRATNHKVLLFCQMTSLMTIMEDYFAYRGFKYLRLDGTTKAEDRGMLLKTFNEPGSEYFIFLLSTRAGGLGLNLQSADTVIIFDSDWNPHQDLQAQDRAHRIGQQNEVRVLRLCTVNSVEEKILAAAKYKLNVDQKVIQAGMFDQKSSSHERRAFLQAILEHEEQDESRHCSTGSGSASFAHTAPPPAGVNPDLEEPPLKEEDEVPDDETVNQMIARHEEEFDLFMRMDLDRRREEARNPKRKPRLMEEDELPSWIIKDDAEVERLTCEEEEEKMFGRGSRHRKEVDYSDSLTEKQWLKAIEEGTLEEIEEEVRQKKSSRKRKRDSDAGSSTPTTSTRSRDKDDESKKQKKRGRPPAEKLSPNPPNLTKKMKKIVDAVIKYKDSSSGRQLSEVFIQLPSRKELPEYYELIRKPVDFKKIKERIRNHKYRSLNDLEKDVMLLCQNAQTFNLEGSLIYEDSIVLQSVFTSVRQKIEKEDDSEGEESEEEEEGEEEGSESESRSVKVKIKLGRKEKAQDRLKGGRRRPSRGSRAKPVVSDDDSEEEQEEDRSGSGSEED
Outline: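 Fluorescent LI-COR imaging of Western blots quantified SMARCA2 and SMARCA4 protein remaining in MV4-11 cells after 24 h of compound treatment. β-actin was the loading control, and DC50, Dmax and SMARCA2/4 selectivity are given as letter-coded ranges.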

[2] = biological target: T2, SMARCA2 (Homo sapiens, UniProt P51531); assay: MSD SMARCA2 degradation in A549 cell line; conditions: for Dmax: A549, A549 cells; for Dmax / DC50: 24 h; for DC50 / SMARCA2 MSD A549 degradation 24 h: Average Dmax %: A549 cells; for DC50: read-out: SMARCA2 MSD A549 degradation 24 h: Average external-Abs DC50
T2 sequence (P51531 whole entry): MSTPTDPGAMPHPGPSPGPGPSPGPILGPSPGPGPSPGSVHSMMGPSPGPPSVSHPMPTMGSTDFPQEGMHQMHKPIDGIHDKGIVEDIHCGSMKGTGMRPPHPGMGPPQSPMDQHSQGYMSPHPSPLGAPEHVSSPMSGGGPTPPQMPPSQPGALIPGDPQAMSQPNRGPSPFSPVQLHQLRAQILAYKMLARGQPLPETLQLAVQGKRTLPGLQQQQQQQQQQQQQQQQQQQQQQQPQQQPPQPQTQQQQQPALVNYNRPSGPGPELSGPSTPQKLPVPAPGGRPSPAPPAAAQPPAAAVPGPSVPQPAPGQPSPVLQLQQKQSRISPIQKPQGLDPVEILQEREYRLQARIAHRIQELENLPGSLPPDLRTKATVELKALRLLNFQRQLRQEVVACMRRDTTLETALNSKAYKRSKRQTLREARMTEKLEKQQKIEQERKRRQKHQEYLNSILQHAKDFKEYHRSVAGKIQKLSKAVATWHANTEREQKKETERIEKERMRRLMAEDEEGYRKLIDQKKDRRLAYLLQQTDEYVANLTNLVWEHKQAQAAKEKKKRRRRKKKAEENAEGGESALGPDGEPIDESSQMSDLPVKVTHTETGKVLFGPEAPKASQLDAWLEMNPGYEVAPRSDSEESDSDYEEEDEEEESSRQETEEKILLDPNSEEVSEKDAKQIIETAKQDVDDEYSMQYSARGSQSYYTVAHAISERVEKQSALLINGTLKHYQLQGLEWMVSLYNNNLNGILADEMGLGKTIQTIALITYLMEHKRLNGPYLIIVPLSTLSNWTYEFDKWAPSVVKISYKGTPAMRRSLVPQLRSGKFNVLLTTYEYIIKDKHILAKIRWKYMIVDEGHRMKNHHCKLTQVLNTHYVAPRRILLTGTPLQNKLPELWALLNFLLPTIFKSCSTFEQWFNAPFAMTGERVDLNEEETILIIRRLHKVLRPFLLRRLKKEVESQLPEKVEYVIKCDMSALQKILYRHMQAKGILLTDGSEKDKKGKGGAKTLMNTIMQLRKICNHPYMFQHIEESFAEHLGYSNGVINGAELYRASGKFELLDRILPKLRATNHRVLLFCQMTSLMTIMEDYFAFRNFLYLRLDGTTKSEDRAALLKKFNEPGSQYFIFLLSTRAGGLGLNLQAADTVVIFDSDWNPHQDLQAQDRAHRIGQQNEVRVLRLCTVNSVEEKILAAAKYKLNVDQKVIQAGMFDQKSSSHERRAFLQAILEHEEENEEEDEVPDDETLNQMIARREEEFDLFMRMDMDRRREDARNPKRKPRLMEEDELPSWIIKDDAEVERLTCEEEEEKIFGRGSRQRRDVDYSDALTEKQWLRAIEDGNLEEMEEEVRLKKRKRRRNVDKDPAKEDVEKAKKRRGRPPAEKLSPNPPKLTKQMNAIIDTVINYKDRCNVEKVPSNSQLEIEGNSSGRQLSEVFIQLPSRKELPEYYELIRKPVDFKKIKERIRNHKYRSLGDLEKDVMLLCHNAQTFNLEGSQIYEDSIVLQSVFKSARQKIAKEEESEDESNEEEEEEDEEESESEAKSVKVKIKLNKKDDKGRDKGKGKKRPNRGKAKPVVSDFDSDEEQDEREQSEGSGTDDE
Outline: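 SMARCA2 protein remaining after 24 h exposure of A549 cells (top concentration 1000 nM, 3-fold dilutions) was measured by MSD electrochemiluminescence immunoassay of cell lysates. Results are given as binned DC50 and maximal degradation (Dmax) codes.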

[3] = biological target: T2, SMARCA2; assay: SMARCA2 Western blot degradation in MV4-11 cells; parameters: SMARCA2/SMARCA4 protein degradation selectivity in MV4-11 cells; endogenous in cells; host or cells: MV4-11; conditions: for Dmax: MV4-11, MV4-11 cells, read-out: SMARCA2 MSD MV411 degradation 24 h: average Dmax %; for Dmax / DC50 / SMARCA2 MSD MV411 degradation 24 h: average Dmax %: 24 h; for DC50 / Selectivity in MV411 / SMARCA2 MSD MV411 degradation 24 h: average Dmax %: MV4-11 cells; for DC50: read-out: SMARCA2 MSD MV411 degradation 24 h: Mean external-Abs DC50; for Selectivity in MV411: SMARCA2/4 selectivity

Structure (SMILES) | Dmax [1] | DC50 [1] | Dmax [2] | DC50 [2] | Dmax [3] | DC50 [3] | Selectivity in MV411 [3] | SMARCA4 MSD MV411 degradation 24 h: average Dmax % [1] | SMARCA2 MSD A549 degradation 24 h: Average Dmax % [2] | SMARCA2 MSD MV411 degradation 24 h: average Dmax % [3]
C#Cc1ccc(CNC(=O)[C@@H]2C[C@@H](O)CN2C(=O)[C@@H](NC(=O)[C@H]2CCC3(CC2)C[C@H](N2CCC(c4cnc(N5CCN6c7cc(-c8ccccc8O)nnc7NC[C@H]6C5)nc4)CC2)C3)C(C)(C)CCO)cc1 (single isomer, unassigned) [I-131] | 50 to 70% | 10 to 100 nM | > 90% | 10 to 50 nM | > 90% | < 1 nM | C (C (10-100 fold)) | – | – | –
Cc1ncsc1-c1ccc(CNC(=O)[C@@H]2C[C@@H](O)CN2C(=O)[C@@H](NC(=O)[C@H]2CCC3(CC2)C[C@H](N2CCC4(CC2)CN(C(=O)N2CCN5c6cc(-c7ccccc7O)nnc6NC[C@H]5C2)CCO4)C3)C(C)(C)C)cc1 (single isomer, unassigned) [I-133] | 50 to 70% | > 100 nM | 70 to 90% | > 100 nM | 70 to 90% | 10 to 100 nM | C (C (10-100 fold)) | – | – | –
C#Cc1ccc(CNC(=O)[C@@H]2C[C@@H](O)CN2C(=O)[C@@H](NC(=O)[C@H]2CCC3(CC2)C[C@H](N2CCC(c4cnc(N5CCN6c7cc(-c8ccccc8O)nnc7NC[C@H]6C5)nc4)CC2)C3)C(C)(C)C)c(OCCCOC)c1 (single isomer, unassigned) [I-149] | – | 10 to 100 nM | – | 10 to 50 nM | – | 1 to 10 nM | D (D (<10 fold)) | A (A (>90% degradation)) | A (A (>90% degradation)) | A (A (>90% degradation))
C#Cc1ccc(CNC(=O)[C@@H]2C[C@@H](O)CN2C(=O)[C@@H](NC(=O)[C@H]2CCC3(CC2)C[C@H](N2CCC(c4ccc(N5CCN6c7cc(-c8ccccc8O)nnc7NC[C@H]6C5)nc4)CC2)C3)C(C)(C)C)cc1 (single isomer, unassigned) [I-155] | < 50% | > 100 nM | > 90% | 10 to 50 nM | 70 to 90% | 1 to 10 nM | A (A (>500 fold)) | – | – | –
C#Cc1ccc(CNC(=O)[C@@H]2C[C@@H](O)CN2C(=O)[C@@H](NC(=O)[C@H]2CCC3(CC2)C[C@H](N2CCC(c4ccc(N5CCN6c7cc(-c8ccccc8O)nnc7NC[C@H]6C5)nc4)CC2)C3)C(C)(C)C)cc1 (single isomer, unassigned) [I-156] | – | 10 to 100 nM | – | 10 to 50 nM | – | 1 to 10 nM | C (C (10-100 fold)) | B (B (>70-90% degradation)) | A (A (>90% degradation)) | B (B (>70-90% degradation))
C#Cc1ccc(CNC(=O)[C@@H]2C[C@@H](O)CN2C(=O)[C@@H](NC(=O)[C@H]2CCC3(CC2)C[C@H](N2CCC(c4cnc(N5CCN6c7cc(-c8ccccc8O)nnc7NC[C@H]6C5)nc4)CC2)C3)C(C)(C)C)c(OCCCN(C)C)c1 (single isomer, unassigned) [I-158] | – | 10 to 100 nM | – | 50 to 100 nM | – | 1 to 10 nM | C (C (10-100 fold)) | B (B (>70-90% degradation)) | A (A (>90% degradation)) | B (B (>70-90% degradation))
C#Cc1ccc(CNC(=O)[C@@H]2C[C@@H](O)CN2C(=O)[C@@H](NC(=O)N2CCN(C[C@@H]3CCN(c4cnc(N5CCc6[nH]c7nnc(-c8ccccc8O)cc7c6[C@H]5C)nc4)C3)CC2)C(C)(C)C)cc1 (single isomer, unassigned) [I-161] | 50 to 70% | > 100 nM | > 90% | > 100 nM | 50 to 70% | 10 to 100 nM | C (C (10-100 fold)) | – | – | –
C#Cc1ccc(CNC(=O)[C@@H]2C[C@@H](O)CN2C(=O)[C@@H](NC(=O)N2CCN(C[C@H]3CCN(c4cnc(N5CCc6[nH]c7nnc(-c8ccccc8O)cc7c6[C@H]5C)nc4)C3)CC2)C(C)(C)C)cc1 (single isomer, unassigned) [I-162] | 50 to 70% | > 100 nM | > 90% | > 100 nM | 50 to 70% | 10 to 100 nM | C (C (10-100 fold)) | – | – | –
C#Cc1ccc(CNC(=O)[C@@H]2C[C@@H](O)CN2C(=O)[C@@H](NC(=O)[C@H]2CCC3(CC2)C[C@H](N2CCN(c4cnc(N5CCN6c7cc(-c8ccccc8O)nnc7NC[C@H]6C5)nc4)CC2)C3)C(C)(C)C)cc1 (single isomer, unassigned) [I-170] | – | > 100 nM | – | 10 to 50 nM | – | 1 to 10 nM | C (C (10-100 fold)) | C (C (50-70% degradation)) | A (A (>90% degradation)) | B (B (>70-90% degradation))
C#Cc1ccc(CNC(=O)[C@@H]2C[C@@H](O)CN2C(=O)[C@@H](NC(=O)[C@H]2CCC3(CC2)C[C@H](N2CCC(N4CCC(N5CCN6c7cc(-c8ccccc8O)nnc7NC[C@H]6C5)CC4)CC2)C3)C(C)(C)C)cc1 (single isomer, unassigned) [I-174] | < 50% | > 100 nM | > 90% | > 100 nM | 70 to 90% | 10 to 100 nM | B (B (>100-500 fold)) | – | – | –
C#Cc1ccc(CNC(=O)[C@@H]2C[C@@H](O)CN2C(=O)[C@@H](NC(=O)[C@H]2CCC3(CC2)C[C@H](N2CCC(N4CCC(N5CCN6c7cc(-c8ccccc8O)nnc7NC[C@H]6C5)CC4)CC2)C3)C(C)(C)C)cc1 (single isomer, unassigned) [I-175] | – | > 100 nM | – | 50 to 100 nM | – | 1 to 10 nM | B (B (>100-500 fold)) | D (D (<50% degradation)) | A (A (>90% degradation)) | B (B (>70-90% degradation))
C#Cc1ccc(CNC(=O)[C@@H]2C[C@@H](O)CN2C(=O)[C@@H](NC(=O)[C@H]2CCC3(CC2)C[C@H](N2CCC(N4CCC(N5CCN6c7cc(-c8ccccc8O)nnc7NC[C@H]6C5)CC4)CC2)C3)C(C)(C)C)c(OC)c1 (single isomer, unassigned) [I-177] | 50 to 70% | > 100 nM | > 90% | > 100 nM | 70 to 90% | 10 to 100 nM | C (C (10-100 fold)) | – | – | –

Second part, the molecule after the results:

Dmax [1] | DC50 [1] | Dmax [2] | DC50 [2] | Dmax [3] | DC50 [3] | Selectivity in MV411 [3] | SMARCA4 MSD MV411 degradation 24 h: average Dmax % [1] | SMARCA2 MSD A549 degradation 24 h: Average Dmax % [2] | SMARCA2 MSD MV411 degradation 24 h: average Dmax % [3] | Structure (SMILES)
50 to 70% | > 100 nM | > 90% | > 100 nM | 70 to 90% | 10 to 100 nM | B (B (>100-500 fold)) | – | – | – | C#Cc1ccc(CNC(=O)[C@@H]2C[C@@H](O)CN2C(=O)[C@@H](NC(=O)N2CC3(CC(N4CCC(N5CCC(N6CCc7[nH]c8nnc(-c9ccccc9O)cc8c7[C@H]6C)CC5)CC4)C3)C2)C(C)(C)C)cc1 (single isomer, unassigned) [I-179]
70 to 90% | 10 to 100 nM | > 90% | 10 to 50 nM | > 90% | 1 to 10 nM | C (C (10-100 fold)) | – | – | – | C#Cc1ccc(CNC(=O)[C@@H]2C[C@@H](O)CN2C(=O)[C@@H](NC(=O)[C@H]2CCC3(CC2)C[C@H](N2CCN(c4cnc(N5CCN6c7cc(-c8ccccc8O)nnc7NC[C@H]6C5)nc4)CC2)C3)C(C)(C)C)c(OC)c1 (single isomer, unassigned) [I-195]
– | > 100 nM | – | 10 to 50 nM | – | 1 to 10 nM | C (C (10-100 fold)) | C (C (50-70% degradation)) | A (A (>90% degradation)) | B (B (>70-90% degradation)) | C#Cc1ccc(CNC(=O)[C@@H]2C[C@@H](O)CN2C(=O)[C@@H](NC(=O)[C@H]2CCC3(CC2)C[C@H](N2CCN(c4cnc(N5CCN6c7cc(-c8ccccc8O)nnc7NC[C@H]6C5)nc4)CC2)C3)C(C)(C)C)c(OC)c1 (single isomer, unassigned) [I-196]
50 to 70% | > 100 nM | > 90% | > 100 nM | 70 to 90% | 1 to 10 nM | C (C (10-100 fold)) | – | – | – | C#Cc1ccc(CNC(=O)[C@@H]2C[C@@H](O)CN2C(=O)[C@@H](NC(=O)C2CCN(C[C@H]3CC[C@@H](N4CCc5[nH]c6nnc(-c7ccccc7O)cc6c5[C@H]4C)CC3)CC2)C(C)(C)C)cc1 (single isomer, unassigned) [I-201]
50 to 70% | > 100 nM | > 90% | > 100 nM | 70 to 90% | 1 to 10 nM | C (C (10-100 fold)) | – | – | – | C#Cc1ccc(CNC(=O)[C@@H]2C[C@@H](O)CN2C(=O)[C@@H](NC(=O)C2CCN(C[C@H]3CC[C@H](N4CCc5[nH]c6nnc(-c7ccccc7O)cc6c5[C@H]4C)CC3)CC2)C(C)(C)C)cc1 (single isomer, unassigned) [I-202]
